Tests used:
[1] = system: TRZAWR (Wheat, Winter, cv Riband); experiment: Postemergence herbicidal evaluation; type: in vivo, Triticum aestivum; conditions: postemergence
Procedure, shortened: (§1)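 Compound is applied as a foliar spray to seedlings about two weeks old, formulated in equal parts acetone and water with 0.5% TWEEN 20 and delivered at 40 psi to give about 0.0156–0.500 kg per hectare. Injury is rated visually 0–9 after four to five weeks.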

[2] = system: IPOHE (Morningglory, Ivyleaf); experiment: Preemergence herbicidal evaluation; type: in vivo, Ipomoea hederacea; conditions: rated 4-5 weeks after treatment, rating scale 0-9
Procedure, shortened: (§2)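 Greenhouse preemergence test: seed-soil mix sown on ~1 inch soil; aqueous acetone spray at equivalent of ~0.0156–0.500 kg/ha; greenhouse-held and watered; scored 0–9 visually at 4–5 weeks.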

[3] = system: MOOVA (Monochoria); experiment: Preemergence weed control under flooded paddy conditions; type: in vivo, Monochoria vaginalis; conditions: rated 3-4 weeks after treatment
Procedure, shortened: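 Visual injury scored 0-9 against control three to four weeks post-treatment, greenhouse-grown. Application: acetone/water (50/50) solutions dosed directly into flood water (1.5-3 cm over silt loam, planted top 0.5 cm), roughly 0.0313 to 0.500 kg/ha active ingredient.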

[4] = system: TRZAWR (Wheat, Winter, cv Riband); experiment: Preemergence herbicidal evaluation; type: in vivo, Triticum aestivum; conditions: rated 4-5 weeks after treatment, rating scale 0-9
Procedure, shortened: as §2

[5] = system: ORYSAT (Rice, Tebonnet); experiment: Preemergence herbicidal evaluation; type: in vivo, Oryza sativa, (L.) Tebonnet; conditions: rated 4-5 weeks after treatment, rating scale 0-9
Procedure, shortened: as §2

[6] = system: SETVI (Foxtail, Green); experiment: Preemergence herbicidal evaluation; type: in vivo, Setaria viridis; conditions: rated 4-5 weeks after treatment, rating scale 0-9
Procedure, shortened: as §2

[7] = system: ABUTH (Velvetleaf); experiment: Postemergence herbicidal evaluation; type: in vivo, Abutilon theophrasti; conditions: postemergence
Procedure, shortened: as §1

[8] = system: ECHCG (Barnyardgrass); experiment: Preemergence herbicidal evaluation; type: in vivo, Echinochloa crus-galli; conditions: rated 4-5 weeks after treatment, rating scale 0-9
Procedure, shortened: as §2

[9] = system: CHEAL (Lambsquarters, Common); experiment: Preemergence herbicidal evaluation; type: in vivo, Chenopodium album; conditions: rated 4-5 weeks after treatment, rating scale 0-9
Procedure, shortened: as §2

[10] = system: ECHORC (Watergrass (Calif.)); experiment: Preemergence weed control under flooded paddy conditions; type: in vivo, Echinochloa oryzoides; conditions: rated 3-4 weeks after treatment
Procedure, shortened: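 Silt loam, seeds in top 0.5 cm; flood held 1.5-3 cm; test cpd as acetone/water 50/50 into flood water, ~0.0313-0.500 kg/ha a.i.; greenhouse 3-4 wk; visual 0-9 score vs control.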

[11] = system: IPOHE (Morningglory, Ivyleaf); experiment: Postemergence herbicidal evaluation; type: in vivo, Ipomoea hederacea; conditions: postemergence
Procedure, shortened: as §1

For `Cc1ccc(CN2C(=O)CSC2=Nc2cc(-n3c(=O)cc(C(F)(F)F)n(C)c3=O)c(F)cc2Cl)cc1Cl` [Compound 149, 3-{4-Chloro-5-{[3-(3-chloro-4-methylbenzyl)-4-oxo-2-thiazolidinylidene]amino}-2-fluorophenyl}-1-methyl-6-(trifluoromethyl)-2,4(1H,3H)-pyrimidinedione], which “Herbicidal rating TRZAWR” value ([1]; rate 0.0156 kg/ha) is on record?
Its value is 3.0.

And the “Herbicidal rating TRZAWR” value ([1]; rate 0.0313 kg/ha)?
The value was 3.5.

And the “Herbicidal rating TRZAWR” value ([1]; rate 0.0625 kg/ha)?
Its value is 3.5.

And the “Preemergence herbicidal rating IPOHE” value ([2]; rate 0.1250 kg/ha)?
The value was 0.0.

And the “Preemergence herbicidal rating IPOHE” value ([2]; rate 0.2500 kg/ha)?
The value was 2.0.

What about the “herbicidal effect rating, MOOVA” value ([3]; 0.0313 kg/ha) of the same molecule?
The value was 5.0.

What about the “herbicidal effect rating, MOOVA” value ([3]; 0.0625 kg/ha) of the same molecule?
The value was 7.0.

And the “herbicidal effect rating, MOOVA” value ([3]; 0.1250 kg/ha)?
The value was 7.0.

And the “herbicidal effect rating, MOOVA” value ([3]; 0.2500 kg/ha)?
The value was 7.0.

What about the “Preemergence herbicidal rating TRZAWR” value ([4]; rate 0.1250 kg/ha) of the same molecule?
Its value is 0.0.

What about the “Preemergence herbicidal rating TRZAWR” value ([4]; rate 0.2500 kg/ha) of the same molecule?
Its value is 2.0.

And the “Preemergence herbicidal rating ORYSAT” value ([5]; rate 0.1250 kg/ha)?
The value was 2.0.

And the “Preemergence herbicidal rating ORYSAT” value ([5]; rate 0.2500 kg/ha)?
Its value is 2.0.

And the “Preemergence herbicidal rating SETVI” value ([6]; rate 0.1250 kg/ha)?
The value was 0.0.

And the “Preemergence herbicidal rating SETVI” value ([6]; rate 0.2500 kg/ha)?
Its value is 0.0.

What about the “Herbicidal rating ABUTH” value ([7]; rate 0.0156 kg/ha) of the same molecule?
The value was 4.0.

And the “Herbicidal rating ABUTH” value ([7]; rate 0.0313 kg/ha)?
Its value is 8.0.

What about the “Herbicidal rating ABUTH” value ([7]; rate 0.0625 kg/ha) of the same molecule?
The value was 9.0.

What about the “Preemergence herbicidal rating ECHCG” value ([8]; rate 0.1250 kg/ha) of the same molecule?
Its value is 0.0.

And the “Preemergence herbicidal rating ECHCG” value ([8]; rate 0.2500 kg/ha)?
The value was 0.0.

What about the “Preemergence herbicidal rating CHEAL” value ([9]; rate 0.1250 kg/ha) of the same molecule?
The value was 3.0.

What about the “Preemergence herbicidal rating CHEAL” value ([9]; rate 0.2500 kg/ha) of the same molecule?
Its value is 9.0.

What about the “herbicidal effect rating, ECHORC” value ([10]; 0.0313 kg/ha) of the same molecule?
Its value is 2.0.

And the “herbicidal effect rating, ECHORC” value ([10]; 0.0625 kg/ha)?
The value was 3.0.

What about the “herbicidal effect rating, ECHORC” value ([10]; 0.1250 kg/ha) of the same molecule?
Its value is 6.0.

And the “herbicidal effect rating, ECHORC” value ([10]; 0.2500 kg/ha)?
The value was 7.0.

What about the “Herbicidal rating IPOHE” value ([11]; rate 0.0156 kg/ha) of the same molecule?
Its value is 9.0.

What about the “Herbicidal rating IPOHE” value ([11]; rate 0.0313 kg/ha) of the same molecule?
The value was 9.0.

What about the “Herbicidal rating IPOHE” value ([11]; rate 0.0625 kg/ha) of the same molecule?
Its value is 9.0.

How did the “Herbicidal rating TRZAWR” value ([1]; rate 0.0156 kg/ha) turn out when `Cn1c(C(F)(F)F)cc(=O)n(-c2cc(N=C3SCC(=O)N3Cc3cc(Cl)cc(Cl)c3)c(Cl)cc2F)c1=O` [Compound 150, 3-{4-Chloro-5-{[3-(3,5-dichlorobenzyl)-4-oxo-2-thiazolidinylidene]amino}-2-fluorophenyl}-1-methyl-6-(trifluoromethyl)-2,4(1H,3H)-pyrimidinedione] was run?
Its value is 3.5.

What about the “Herbicidal rating TRZAWR” value ([1]; rate 0.0313 kg/ha) of the same molecule?
Its value is 3.5.

What about the “Herbicidal rating TRZAWR” value ([1]; rate 0.0625 kg/ha) of the same molecule?
The value was 3.5.

What about the “Preemergence herbicidal rating IPOHE” value ([2]; rate 0.0313 kg/ha) of the same molecule?
The value was 0.0.

And the “Preemergence herbicidal rating IPOHE” value ([2]; rate 0.0625 kg/ha)?
The value was 0.0.

What about the “Preemergence herbicidal rating IPOHE” value ([2]; rate 0.1250 kg/ha) of the same molecule?
Its value is 9.0.

And the “Preemergence herbicidal rating IPOHE” value ([2]; rate 0.2500 kg/ha)?
Its value is 9.0.

What about the “herbicidal effect rating, MOOVA” value ([3]; 0.0313 kg/ha) of the same molecule?
The value was 6.0.

And the “herbicidal effect rating, MOOVA” value ([3]; 0.0625 kg/ha)?
Its value is 9.0.

And the “herbicidal effect rating, MOOVA” value ([3]; 0.1250 kg/ha)?
The value was 9.0.

And the “herbicidal effect rating, MOOVA” value ([3]; 0.2500 kg/ha)?
Its value is 9.0.

And the “Preemergence herbicidal rating TRZAWR” value ([4]; rate 0.0313 kg/ha)?
Its value is 0.0.

And the “Preemergence herbicidal rating TRZAWR” value ([4]; rate 0.0625 kg/ha)?
Its value is 0.0.

And the “Preemergence herbicidal rating TRZAWR” value ([4]; rate 0.1250 kg/ha)?
The value was 1.0.

And the “Preemergence herbicidal rating TRZAWR” value ([4]; rate 0.2500 kg/ha)?
The value was 1.0.

What about the “Preemergence herbicidal rating ORYSAT” value ([5]; rate 0.0313 kg/ha) of the same molecule?
The value was 0.0.

What about the “Preemergence herbicidal rating ORYSAT” value ([5]; rate 0.0625 kg/ha) of the same molecule?
The value was 1.0.

And the “Preemergence herbicidal rating ORYSAT” value ([5]; rate 0.1250 kg/ha)?
The value was 2.0.

And the “Preemergence herbicidal rating ORYSAT” value ([5]; rate 0.2500 kg/ha)?
The value was 1.0.

What about the “Preemergence herbicidal rating SETVI” value ([6]; rate 0.0313 kg/ha) of the same molecule?
The value was 0.0.

And the “Preemergence herbicidal rating SETVI” value ([6]; rate 0.0625 kg/ha)?
The value was 0.0.

What about the “Preemergence herbicidal rating SETVI” value ([6]; rate 0.1250 kg/ha) of the same molecule?
Its value is 4.0.

What about the “Preemergence herbicidal rating SETVI” value ([6]; rate 0.2500 kg/ha) of the same molecule?
Its value is 9.0.

What about the “Herbicidal rating ABUTH” value ([7]; rate 0.0156 kg/ha) of the same molecule?
Its value is 9.0.

What about the “Herbicidal rating ABUTH” value ([7]; rate 0.0313 kg/ha) of the same molecule?
Its value is 9.0.

And the “Herbicidal rating ABUTH” value ([7]; rate 0.0625 kg/ha)?
The value was 9.0.

And the “Preemergence herbicidal rating ECHCG” value ([8]; rate 0.0313 kg/ha)?
The value was 0.0.

What about the “Preemergence herbicidal rating ECHCG” value ([8]; rate 0.0625 kg/ha) of the same molecule?
The value was 0.0.

And the “Preemergence herbicidal rating ECHCG” value ([8]; rate 0.1250 kg/ha)?
The value was 2.0.

And the “Preemergence herbicidal rating ECHCG” value ([8]; rate 0.2500 kg/ha)?
The value was 4.0.

And the “Preemergence herbicidal rating CHEAL” value ([9]; rate 0.0313 kg/ha)?
The value was 9.0.

And the “Preemergence herbicidal rating CHEAL” value ([9]; rate 0.0625 kg/ha)?
Its value is 9.0.

What about the “Preemergence herbicidal rating CHEAL” value ([9]; rate 0.1250 kg/ha) of the same molecule?
Its value is 9.0.

What about the “Preemergence herbicidal rating CHEAL” value ([9]; rate 0.2500 kg/ha) of the same molecule?
Its value is 9.0.

And the “herbicidal effect rating, ECHORC” value ([10]; 0.0313 kg/ha)?
Its value is 6.0.

What about the “herbicidal effect rating, ECHORC” value ([10]; 0.0625 kg/ha) of the same molecule?
Its value is 7.0.

What about the “herbicidal effect rating, ECHORC” value ([10]; 0.1250 kg/ha) of the same molecule?
The value was 9.0.

What about the “herbicidal effect rating, ECHORC” value ([10]; 0.2500 kg/ha) of the same molecule?
Its value is 9.0.

What about the “Herbicidal rating IPOHE” value ([11]; rate 0.0156 kg/ha) of the same molecule?
Its value is 9.0.

What about the “Herbicidal rating IPOHE” value ([11]; rate 0.0313 kg/ha) of the same molecule?
Its value is 9.0.

And the “Herbicidal rating IPOHE” value ([11]; rate 0.0625 kg/ha)?
The value was 9.0.

Source: patent publication US20020137929A1, “1 - (3-heterocyclylphenyl) isothiourea, -isourea, -guanidine and -amidine herbicidal agents” (Intellectual Property Department, BASF Aktiengesellschaft, priority 1998, published 2002)
